Measurements: patent EP0379367B1, “Method for the prevention of intrinsically aged skin with retinoids” (ORTHO PHARMACEUTICAL CORPORATION, priority 1989, dated 1990)
“Also recorded” adds a separate entry of the source.

Experiments:
[1] = test system: Female Albino hairless mice (Skh-hairless-1); test: Lifetime topical application of all-trans-retinoic acid to albino hairless mice (toxicity, clinical and histochemical skin observations); settings: for clinical observations: condition of the skin: lifetime application, mice 91-106 weeks of age at photograph (Figure 1), versus vehicle and untreated controls
Description: (§1) Lifetime Application of all-trans-Retinoic Acid to Albino Hairless Mice.
(§2) Female Albino hairless mice (Skh-hairless-1), age 8-11 weeks, were treated topically, three times a week, for the remainder of their life span as follows:
(§3) The mice were examined monthly for skin changes and possible weight loss that might indicate a toxic effect.
(§4) Toward the end of the study, mice were photographed to show the condition of the skin. A few mice were sacrificed at about 70, 80 and 90 weeks, with dorsal skin taken for histochemical evaluation. The remainder were allowed to live out their life span which ranged from 91-106 weeks and were biopsied when moribound, if possible. The histochemical stains were: H&E for general histology, Luna's for elastic fibers, Van Gieson's for collagen and Mowry's for proteoglycans.

[2] = test system: Female Albino hairless mice (Skh-hairless-1); settings: mouse, in vivo
Description: as §1, §2, §3, §4

For `CC1=C(/C=C/C(C)=C/C=C/C(C)=C/C(=O)O)C(C)(C)CCC1` [all-trans-retinoic acid], the mortality ([1]; 0.025% (100 µl) topically, three times a week, remainder of life span, compared with cream vehicle and untreated groups) was “no difference in mortality”, the “clinical observations: condition of the skin” value [1] was “thinner, pinker, more uniform skin than the controls” and the “clinical observations: condition of the skin” value ([1]; listed as All-trans-retinoic acid) was “thinner, pinker, more uniform skin than controls or untreated mice”. The “collagen in the repair zones (Van Gieson's stain)” value ([1]; lifetime treatment) was “stained mainly as normal, mature collagen”, the “dermal inflammation (H&E)” value ([1]; lifetime treatment) was “mild inflammatory infiltrate in the mid-dermis” and the “epidermal cell morphology (H&E)” value ([1]; lifetime treatment) was “plump, cytologically normal and have abundant cytoplasm; also recorded: plump, cytologically normal and had an abundant cytoplasm”. For the same compound, the “granular layer of epidermis (H&E)” value ([1]; lifetime treatment) was “about 4 cell layers”, the “elastic fibers (Luna's stain)” value ([1]; lifetime treatment (Figure 4)) was “increased amount of new elastic fibers” and the “glycosamino-/proteoglycan deposits at the dermal-epidermal junction (Mowry's stain)” value ([1]; lifetime treatment, compared with the other groups) was “Fewer deposits”. The “epidermis (H&E), thickness” value ([1]; lifetime treatment, hyperplastic, controls had the usual 2-4 compressed-looking cells) was “about 8 cell layers”, the “new collagen (H&E; Luna's stain)” value ([1]; lifetime treatment, no repair areas in controls) was “Areas of new collagen were apparent” and the “granular layer of epidermis (H&E, Figure 4)” value ([1]; lifetime treatment, sample from a mouse 95 weeks of age) was “approximately 4 cells”. For the same compound, the “dermal glycosaminoglycans or proteoglycans (Mowry's stain)” value ([1]; lifetime treatment, stated for all groups) was “little or no increase”, the “blood vessels (H&E)” value ([1]; lifetime treatment, unlike in the controls) was “abundance of new blood vessels; also recorded: readily seen” and the toxic effects ([1]; treatment over a lifetime) was “no detectable toxic effects”. For the same compound, the “adverse or unusual effects at biopsy and necropsy” value [2] was “no indication that the mice suffered any adverse or unusual effects” and the weights of mice [2] was “no difference in the weights”.
